Experimental data published in ChEMBL document CHEMBL1138236, “Novel aminophenyl benzamide-type histone deacetylase inhibitors with enhanced potency and selectivity” (J Med Chem, 2007).

Assays:
Histone deacetylase 1 = Histone deacetylase 1 (Homo sapiens, UniProt Q13547)
Description: Inhibition of human recombinant HDAC1

Histone deacetylase 2 = Histone deacetylase 2 (Homo sapiens, UniProt Q92769)
Description: Inhibition of human recombinant HDAC2

HCT-116 = assay: Cytotoxicity against human HCT116 cells by MTT assay; type: functional, cell-based
[1] = Cytotoxicity against human mammary epithelial cells by MTT assay; type: cell-based; details: Epithelial cell
Histone deacetylase 3 = Histone deacetylase 3 (Homo sapiens, UniProt O15379); assay: Inhibition of human recombinant HDAC3
Histone deacetylase 8 = target: T1, Histone deacetylase 8 (Homo sapiens, UniProt Q9BY41); assay: Inhibition of human recombinant HDAC8
T1 sequence (Q9BY41 whole entry): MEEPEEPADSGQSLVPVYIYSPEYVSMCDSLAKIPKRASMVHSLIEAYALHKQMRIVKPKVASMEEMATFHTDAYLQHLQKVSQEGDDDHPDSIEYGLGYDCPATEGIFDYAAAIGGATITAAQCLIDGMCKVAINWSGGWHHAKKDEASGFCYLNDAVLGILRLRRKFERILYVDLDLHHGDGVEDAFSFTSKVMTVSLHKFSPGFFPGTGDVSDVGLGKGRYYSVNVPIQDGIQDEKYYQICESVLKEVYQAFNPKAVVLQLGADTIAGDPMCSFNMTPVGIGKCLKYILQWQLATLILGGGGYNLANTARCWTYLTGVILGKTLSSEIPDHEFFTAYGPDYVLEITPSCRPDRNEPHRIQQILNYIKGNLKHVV

Histone deacetylase = assay: Inhibition of HDAC in 293T cells; type: cell-based, Homo sapiens

Histone deacetylase 2, sequence (Q92769 whole entry): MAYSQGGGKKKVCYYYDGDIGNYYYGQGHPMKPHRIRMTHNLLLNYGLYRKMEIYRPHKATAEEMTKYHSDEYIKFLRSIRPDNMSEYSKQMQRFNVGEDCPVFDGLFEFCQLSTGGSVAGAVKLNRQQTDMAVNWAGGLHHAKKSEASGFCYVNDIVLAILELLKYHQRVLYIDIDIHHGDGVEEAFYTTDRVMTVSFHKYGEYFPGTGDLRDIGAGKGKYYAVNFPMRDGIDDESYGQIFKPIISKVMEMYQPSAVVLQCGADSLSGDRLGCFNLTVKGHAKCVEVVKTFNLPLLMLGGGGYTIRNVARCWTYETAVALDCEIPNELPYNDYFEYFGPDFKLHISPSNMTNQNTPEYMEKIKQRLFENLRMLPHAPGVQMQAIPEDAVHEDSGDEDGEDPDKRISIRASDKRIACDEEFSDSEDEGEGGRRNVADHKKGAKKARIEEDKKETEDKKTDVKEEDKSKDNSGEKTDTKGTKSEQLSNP
Histone deacetylase 1, sequence (Q13547 whole entry): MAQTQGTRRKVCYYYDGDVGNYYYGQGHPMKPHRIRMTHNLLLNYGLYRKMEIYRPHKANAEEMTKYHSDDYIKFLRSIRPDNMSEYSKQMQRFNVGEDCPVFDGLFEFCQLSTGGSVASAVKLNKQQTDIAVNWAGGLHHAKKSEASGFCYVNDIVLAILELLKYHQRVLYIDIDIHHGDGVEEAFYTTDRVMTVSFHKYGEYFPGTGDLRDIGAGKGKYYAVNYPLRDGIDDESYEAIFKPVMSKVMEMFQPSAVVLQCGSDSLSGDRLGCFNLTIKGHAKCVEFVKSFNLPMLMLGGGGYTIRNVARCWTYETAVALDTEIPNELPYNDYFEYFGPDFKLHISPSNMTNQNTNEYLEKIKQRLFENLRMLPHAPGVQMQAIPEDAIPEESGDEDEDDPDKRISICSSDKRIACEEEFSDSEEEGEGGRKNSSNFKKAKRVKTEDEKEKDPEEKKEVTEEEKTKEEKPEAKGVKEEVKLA
Histone deacetylase 3, sequence (O15379 whole entry): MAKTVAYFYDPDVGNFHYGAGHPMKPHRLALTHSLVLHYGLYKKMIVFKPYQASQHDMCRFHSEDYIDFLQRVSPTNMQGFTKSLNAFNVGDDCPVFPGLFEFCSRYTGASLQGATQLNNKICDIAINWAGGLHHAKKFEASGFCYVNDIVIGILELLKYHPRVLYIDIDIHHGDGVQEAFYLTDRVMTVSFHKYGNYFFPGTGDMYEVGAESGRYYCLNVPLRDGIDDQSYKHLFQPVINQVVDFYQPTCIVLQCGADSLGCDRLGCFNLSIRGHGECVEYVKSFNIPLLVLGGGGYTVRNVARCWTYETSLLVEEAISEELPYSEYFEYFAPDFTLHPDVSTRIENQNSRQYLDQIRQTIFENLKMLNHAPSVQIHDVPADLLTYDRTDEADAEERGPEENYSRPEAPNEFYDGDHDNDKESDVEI

Row | Compound | IC50 (Histone deacetylase 1) | IC50 (Histone deacetylase 2) | IC50 (Histone deacetylase 3) | IC50 (Histone deacetylase 8) | IC50 (Histone deacetylase) | IC50 (HCT-116) | IC50 [1]
1 | CC(=O)Nc1ccc(C(=O)Nc2ccccc2N)cc1 [TACEDINALINE] | – | – | – | – | – | 4000 nM | > 50000 nM
2 | COc1ccc(NCc2ccc(C(=O)Nc3cc(-c4ccsc4)ccc3N)cc2)cc1OC | – | 60 nM | – | – | – | – | –
3 | COc1ccc(NCc2ccc(C(=O)Nc3cc(-c4ccccc4)ccc3N)cc2)cc1OC | – | 100 nM | – | – | – | – | –
4 | Nc1ccc(-c2cccs2)cc1NC(=O)c1ccc(CNC(=O)OCc2cccnc2)cc1 | – | 100 nM | – | – | – | – | –
5 | O=C(/C=C/c1ccc(CN(CCO)CCc2c[nH]c3ccccc23)cc1)NO [DACINOSTAT] | – | – | – | – | – | < 50 nM | 1000 nM
6 | COc1ccc(C(=O)Nc2ccccc2N)cc1 | 2000 nM | 900 nM | 1400 nM | > 20000 nM | 3000 nM | 10000 nM | > 50000 nM
7 | COc1ccc(C(=O)Nc2cc(-c3cccs3)ccc2N)cc1 | 50 nM | 200 nM | > 20000 nM | > 20000 nM | 150 nM | 400 nM | > 50000 nM
8 | Nc1ccc(-c2cccs2)cc1NC(=O)c1ccc2nccnc2c1 | 60 nM | 200 nM | > 20000 nM | > 20000 nM | 900 nM | 900 nM | 26000 nM
9 | Nc1ccccc1NC(=O)c1ccc2nccnc2c1 | 2000 nM | 2000 nM | > 20000 nM | > 20000 nM | 3000 nM | 11000 nM | > 50000 nM
10 | CC(=O)Nc1ccc(C(=O)Nc2cc(-c3cccs3)ccc2N)cc1 | – | – | – | > 20000 nM | – | 500 nM | > 50000 nM
11 | COc1ccc(NCc2ccc(C(=O)Nc3cc(-c4cccs4)ccc3O)cc2)cc1OC | 40 nM | 60 nM | – | – | – | – | –
12 | COc1ccc(NCc2ccc(C(=O)Nc3cc(-c4ccoc4)ccc3N)cc2)cc1OC | 50 nM | 70 nM | – | – | – | – | –

Second part, led by results:

Row | IC50 (Histone deacetylase 1) | IC50 (Histone deacetylase 2) | IC50 (Histone deacetylase 3) | IC50 (Histone deacetylase 8) | IC50 (Histone deacetylase) | Compound | IC50 (HCT-116) | IC50 [1]
13 | > 10000 nM | > 10000 nM | – | – | – | COc1ccc(NCc2ccc(C(=O)Nc3ccc(-c4cccs4)cc3N)cc2)cc1OC | – | –
14 | 440 nM | 500 nM | – | – | – | COc1ccc(NCc2ccc(C(=O)Nc3ccccc3N)cc2)cc1OC | – | –
15 | > 10000 nM | > 10000 nM | – | – | – | COc1ccc(NCc2ccc(C(=O)Nc3cc(-c4cc5ccccc5s4)ccc3N)cc2)cc1OC | – | –
16 | – | 200 nM | – | – | – | COc1ccc(NCc2ccc(C(=O)Nc3ccccc3O)cc2)cc1OC | – | –
17 | 50 nM | 80 nM | – | – | – | COc1ccc(NCc2ccc(C(=O)Nc3cc(-c4cccs4)ccc3N)cc2)cc1OC | – | –
